Measured values: patent US20240401000A1, “SUSPENSION-BASED 3D CULTURE METHOD FOR ORGANOIDS” (BRIGHAM YOUNG UNIVERSITY, priority 2021, published 2024)

Legend:
[1] = tested on: human fluorescent lung organoid (hFLO); experiment: Bleomycin-induced fibrosis in hFLO with fasudil antifibrotic trial (histochemistry, immunohistochemistry, live confocal imaging); type: cell-based; settings: for lumen area: bleomycin 20 μg mL−1 for 3 days from day 7, then 10 μM fasudil for 4 days, day 14; for collagen deposition (Masson staining) / pro-fibrotic expression (αSMA, fibronectin, PDGFRα; H-DAB): bleomycin 20 μg mL−1 for 3 days, then 10 μM fasudil for 4 days
Method: Cell aggregates were grown as described above for 7 days, after which the cell aggregates were treated with 20 μg mL 1 bleomycin (13877, Cayman Chemical Company, MI, USA, stock solution diluted in either PBS or DMSO). Media was changed after 3 days of culture with bleomycin (i.e., at day 10). At day 10, the organoids were weaned off the bleomycin insult and then treated with either 10 μM fasudil (B3523, ApexBio, TX, USA) or with DMSO (control, vehicle used for fasudil). The cultures were kept in treatment media for 4 more days with media changing every two days. Cell aggregates and media were collected and fixed as described above.
Histologically stained samples were imaged and processed with ImageJ software. First, images were converted to an 8-bit greyscale, after which a threshold was applied. The image was then processed five times iteratively with the dilate function to converging boundary cells. […] The “count particles” function was used to measure lumen characteristics. Data was processed in Microsoft Excel, lumen under the size of 200 μm2 were excluded in all analysis except the calculations of total lumen area and lumen percent arca.
The ratios of collagen to tissue in organoids were determined by analyzing images of Masson-Trichrome stained sections. These images were separated into red, blue, and green components using ImageJ using color deconvolution function. For the Masson staining, areas of the blue and red image channels were determined by thresholding and collagen deposition was determined as the ratio of blue area to red area (collagen to tissue). Intensity histograms were created using the ImageJ histogram function on the selected red area, and average pixel intensity was calculated from the histogram output in Microsoft Excel. For H-DAB, the target protein is the brown channel and the hematoxylin is the blue-purple channel.
There is a critical need for viable organotypic models for the human lung to model diseases including pulmonary fibrosis (PF). In order to fill this need, we induced fibrosis using bleomycin in our hFLO model. Bleomycin-induced PF is an extensively used animal-based model for fibrosis, despite significant cellular and molecular differences between mouse and human lungs. Moreover, therapeutics against PF are limited due to lack of organotypic lung models adapted for drug testing and screening. […] This therapy, however, has not yet been validated in a human lung model. Here, we grew hFLO for 7 days and induced fibrosis using 20 μg mL−1 bleomycin for 3 days, after which aggregates were treated with 10 μM fasudil, a ROCK inhibitor for 4 days to observe possible changes in fibrosis (FIG. 5A). […] In PF, there is an observed alveolar and bronchiolar epithelial cell death and fibroblast abundance. We observed that with bleomycin induction, there was a decrease in the epithelial A549 with an increase in fibroblast HFL1 population ([…]).

[2] = tested on: secreted factors from hFLO aggregates; experiment: Cytokine array of media from hFLO treatment groups; type: cell-based, human; settings: media at day 14
Method: The organoid media from the three treatment groups were collected at day 14. The levels of cytokines secreted to the media were immediately evaluated using the Human Cytokine Array C1000 (AAH-CYT-1000-8, Ray Biotech, GA, USA) with minor modifications. Briefly, the membranes were blocked at room temperature for 30 minutes using the blocking buffer. The media from the organoids were transferred onto the membranes and incubated with gentle rocking overnight at 4° C. After washing, the membranes were incubated with the biotinylated antibody cocktail overnight at 4° C. After further washes, the membranes were probed with Streptavidin-CF680R (29072, Biotium, CA, USA 1:1000) for 1 hour at RT. The membranes were imaged using an Odyssey CLx imager (LI-COR, Cambridge, UK) at high resolution and a wavelength of 700 nm. The exported images of the membranes were quantified using gel analysis plugin on FIJI distribution of ImageJ (open source) under the GNU General Public License.
To further confirm the fibrosis in hFLO-bleomycin fibrotic model and the anti-fibrotic effects of fasudil, we collected culture media from the aggregates and performed a cytokine array using 120 common inflammatory factors.

[3] = tested on: A549, EAhy and HFL1 triculture aggregates; experiment: 3D triculture suspension culture with soluble ECM (self-patterning, growth, fibronectin); type: cell-based, human; settings: 100 μg mL−1 soluble ECM; day 14
Method: To calculate the seeding ratios for each cell line, literature search led us to lung alveolar cell ratios to be around 24% epithelial, 30% endothelial, and 37% interstitial. By this, we simplified the seeding ratio to be roughly 1:2:2 (A549 epithelial: EAhy endothelial: HFL1 fibroblast). For suspension-based cultures, a seeding ratio of 1.0×104 to 1.0×10^5 total cells per aggregate was used and was divided to cach of the cell line using the ratio above. 100-200 μL of mixed cell suspension in 3D media or ECM supplemented 3D media were seeded into cach well of the 96-well ULA plate. […]
Triculture cell aggregates were grown for 14 days using either traditional force aggregation (FA) or as supplemented with 300 μg mL^−1 Matrigel®. […] Cell aggregate sections were then selected using the freeform selection tool and measured for area. […]
We then engineered a 3D triculture to model the lung alveolus and the morphological changes accompanying soluble ECM concentration. […] Cell seeding ratios were followed based on endogenous human lung cell composition which we determined to be roughly 1:2:2 (epithelial: interstitial: vascular) (Table S1).

[4] = bleomycin 20 μg mL−1, live 3D confocal volumetric analysis
[5] = of 120 common inflammatory factors

## bleomycin
[1]; [4]
  epithelial A549 population: decrease
  fibroblast HFL1 population: increase
[1]
  lumen area: decreased lumen area
  collagen deposition (Masson staining): increased collagen deposition
  pro-fibrotic expression (αSMA, fibronectin, PDGFRα; H-DAB): increased
[2]
  secretion of pro-angiogenic factors including FGF2 and VEGFA: increased secretion
  secretion of pro-inflammatory factors (CX3CL1, AREG, CCL3, IL4, IL2, AXL, EGF, IL6 among others): increase
[2]; [5]
  number of factors significantly increased (Control vs Bleomycin): 68 factors

## O=S(=O)(c1cccc2cnccc12)N1CCCNCC1 [fasudil]
[1]
  lumen area: rescued
  collagen deposition (Masson staining): decreased intensity
  pro-fibrotic expression (αSMA, fibronectin, PDGFRα; H-DAB): lowered
[2]
  secretion of pro-angiogenic factors including FGF2 and VEGFA: decreased
  secretion of pro-inflammatory factors (CX3CL1, AREG, CCL3, IL4, IL2, AXL, EGF, IL6 among others): significantly decreased
[2]; [5]
  number of factors significantly changed (Fasudil vs Bleomycin): 56 factors
  number of factors significantly changed between control and fasudil treatment: 36 factors

## collagen I: rat tail collagen I (Sigma-Aldrich), used as soluble ECM supplement
[3]
  aggregate structure (H&E): predominantly compact cell clusters
